According to patent publication EP4467141A1, “PYRAZOLO-QUINOLINES AS SELECTIVE INHIBITORS OF GENOTOXIC STRESS-INDUCED IKK/NF- KB PATHWAYS FOR CANCER THERAPY” (Max-Delbrück-Centrum für Molekulare Medizin in der …, priority 2023, dated 2024):

Experiments:
Experiment in all cases: Kinase panel study
Format in all cases: biochemical
Settings in all cases: read-out: Percentage of inhibition; for inhibition at 1 µM: 1000nM; for inhibition at 10 µM: 10000nM
[1] = target: T1, PRKG1 (Homo sapiens, UniProt Q13976)
T1 construct: purchased Thermo Fisher Scientific
T1 sequence (Q13976 1-671): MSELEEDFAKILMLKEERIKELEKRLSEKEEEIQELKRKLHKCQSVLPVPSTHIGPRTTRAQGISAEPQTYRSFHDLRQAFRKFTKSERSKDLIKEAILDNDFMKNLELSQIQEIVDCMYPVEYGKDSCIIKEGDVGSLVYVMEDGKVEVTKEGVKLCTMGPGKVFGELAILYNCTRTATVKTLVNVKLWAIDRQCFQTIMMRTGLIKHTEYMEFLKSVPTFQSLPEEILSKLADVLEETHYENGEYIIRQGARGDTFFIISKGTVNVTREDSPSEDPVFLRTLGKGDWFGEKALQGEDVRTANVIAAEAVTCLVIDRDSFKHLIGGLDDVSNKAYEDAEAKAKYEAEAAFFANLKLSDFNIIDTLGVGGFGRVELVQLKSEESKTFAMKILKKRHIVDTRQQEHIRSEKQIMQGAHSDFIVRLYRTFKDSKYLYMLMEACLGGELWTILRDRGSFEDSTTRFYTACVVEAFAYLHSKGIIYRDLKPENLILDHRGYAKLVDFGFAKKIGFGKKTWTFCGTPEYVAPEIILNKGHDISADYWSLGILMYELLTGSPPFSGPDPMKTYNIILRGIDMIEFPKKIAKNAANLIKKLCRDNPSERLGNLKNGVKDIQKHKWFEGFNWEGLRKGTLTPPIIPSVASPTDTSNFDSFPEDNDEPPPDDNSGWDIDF
In short: (§1)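 In vitro, kinase panel; ZLyte or Adapta SOP; single-concentration testing (1 or 10 µM); output = % inhibition, plus IC50 in panel.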

[2] = target: T2, AMPKA2/B1/G1 (Homo sapiens, UniProt P54646)
T2 construct: purchased Thermo Fisher Scientific
In short: as §1

[3] = target: T3, INSR (Homo sapiens, UniProt P06213)
T3 construct: purchased Thermo Fisher Scientific
In short: as §1

[4] = target: T4, PHKG1 (Homo sapiens, UniProt Q16816)
T4 construct: purchased Thermo Fisher Scientific
In short: as §1

[5] = target: T5, MST1R (RON) (Homo sapiens, UniProt Q04912)
T5 construct: purchased Thermo Fisher Scientific
In short: as §1

[6] = target: T6, ABL1 T315I (Homo sapiens, UniProt P00519, T315I)
T6 construct: purchased Thermo Fisher Scientific
In short: as §1

[7] = target: T7, PTK2B (FAK2) (Homo sapiens, UniProt Q14289)
T7 construct: purchased Thermo Fisher Scientific
In short: as §1

[8] = target: T8, YES1 (Homo sapiens, UniProt P07947)
T8 construct: purchased Thermo Fisher Scientific
In short: as §1

[9] = target: T9, ADRBK1 (GRK2) (Homo sapiens, UniProt P25098)
T9 construct: purchased Thermo Fisher Scientific
T9 sequence (P25098 1-689): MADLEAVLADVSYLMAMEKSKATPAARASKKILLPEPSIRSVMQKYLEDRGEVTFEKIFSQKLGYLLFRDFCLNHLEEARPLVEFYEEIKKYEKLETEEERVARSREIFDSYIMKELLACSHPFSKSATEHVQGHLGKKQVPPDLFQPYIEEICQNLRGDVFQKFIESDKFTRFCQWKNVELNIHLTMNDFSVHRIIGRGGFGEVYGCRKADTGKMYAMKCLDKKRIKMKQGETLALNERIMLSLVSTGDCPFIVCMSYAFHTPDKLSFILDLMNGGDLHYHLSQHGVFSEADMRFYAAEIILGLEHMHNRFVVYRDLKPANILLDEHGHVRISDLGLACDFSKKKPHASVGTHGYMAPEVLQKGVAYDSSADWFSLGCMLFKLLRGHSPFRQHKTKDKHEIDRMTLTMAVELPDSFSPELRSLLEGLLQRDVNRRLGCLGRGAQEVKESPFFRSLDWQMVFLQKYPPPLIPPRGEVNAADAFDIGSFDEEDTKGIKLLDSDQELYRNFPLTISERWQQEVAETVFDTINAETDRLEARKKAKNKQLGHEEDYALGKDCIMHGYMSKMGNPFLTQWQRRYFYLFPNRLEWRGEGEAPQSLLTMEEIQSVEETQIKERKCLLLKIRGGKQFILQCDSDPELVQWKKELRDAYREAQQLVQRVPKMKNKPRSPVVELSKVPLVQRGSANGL
In short: as §1

T4 sequence (Q16816 whole entry): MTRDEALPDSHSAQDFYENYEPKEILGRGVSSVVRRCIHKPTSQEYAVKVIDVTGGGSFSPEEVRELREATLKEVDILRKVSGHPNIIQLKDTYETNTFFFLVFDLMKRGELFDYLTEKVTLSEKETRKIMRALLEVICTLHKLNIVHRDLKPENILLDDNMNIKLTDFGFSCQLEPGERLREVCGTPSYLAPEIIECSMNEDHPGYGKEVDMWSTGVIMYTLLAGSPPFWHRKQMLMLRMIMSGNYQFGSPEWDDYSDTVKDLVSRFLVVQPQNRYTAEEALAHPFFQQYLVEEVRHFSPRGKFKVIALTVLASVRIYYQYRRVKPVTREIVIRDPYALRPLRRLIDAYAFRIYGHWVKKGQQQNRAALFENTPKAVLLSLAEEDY
T3 sequence (P06213 28-1382): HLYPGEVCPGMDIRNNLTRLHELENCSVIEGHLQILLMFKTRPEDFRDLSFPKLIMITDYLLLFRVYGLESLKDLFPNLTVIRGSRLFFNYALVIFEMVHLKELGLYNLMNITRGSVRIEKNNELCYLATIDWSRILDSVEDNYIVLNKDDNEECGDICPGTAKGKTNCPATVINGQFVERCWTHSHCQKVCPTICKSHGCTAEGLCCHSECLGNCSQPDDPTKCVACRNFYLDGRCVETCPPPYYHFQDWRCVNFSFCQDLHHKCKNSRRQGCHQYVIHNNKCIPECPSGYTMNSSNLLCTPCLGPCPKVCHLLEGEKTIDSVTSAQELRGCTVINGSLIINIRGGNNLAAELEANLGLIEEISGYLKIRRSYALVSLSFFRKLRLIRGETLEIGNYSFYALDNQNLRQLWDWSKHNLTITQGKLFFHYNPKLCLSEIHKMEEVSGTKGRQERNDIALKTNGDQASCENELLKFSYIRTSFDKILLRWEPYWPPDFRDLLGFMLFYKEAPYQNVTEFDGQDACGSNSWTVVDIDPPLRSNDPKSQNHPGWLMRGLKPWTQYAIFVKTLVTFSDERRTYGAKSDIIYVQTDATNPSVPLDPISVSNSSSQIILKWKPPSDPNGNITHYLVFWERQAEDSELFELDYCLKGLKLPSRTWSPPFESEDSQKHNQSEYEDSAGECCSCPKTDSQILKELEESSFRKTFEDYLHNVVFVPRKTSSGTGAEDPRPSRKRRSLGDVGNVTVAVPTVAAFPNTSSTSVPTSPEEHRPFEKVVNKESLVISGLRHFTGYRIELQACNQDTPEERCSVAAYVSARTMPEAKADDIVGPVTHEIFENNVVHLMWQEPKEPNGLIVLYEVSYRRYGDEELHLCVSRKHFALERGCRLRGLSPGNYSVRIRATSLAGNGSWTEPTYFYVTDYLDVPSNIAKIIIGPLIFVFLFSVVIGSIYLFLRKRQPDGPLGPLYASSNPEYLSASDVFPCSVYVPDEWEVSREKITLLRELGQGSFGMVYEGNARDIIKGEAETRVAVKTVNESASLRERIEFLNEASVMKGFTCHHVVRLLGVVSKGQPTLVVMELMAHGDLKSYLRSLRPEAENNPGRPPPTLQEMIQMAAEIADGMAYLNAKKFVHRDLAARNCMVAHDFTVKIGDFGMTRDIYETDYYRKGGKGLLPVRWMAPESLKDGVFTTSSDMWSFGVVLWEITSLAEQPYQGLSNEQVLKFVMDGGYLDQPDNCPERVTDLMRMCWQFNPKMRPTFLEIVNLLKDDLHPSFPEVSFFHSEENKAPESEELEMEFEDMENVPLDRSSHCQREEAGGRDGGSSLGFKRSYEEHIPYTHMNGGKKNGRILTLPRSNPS
T7 sequence (Q14289 whole entry): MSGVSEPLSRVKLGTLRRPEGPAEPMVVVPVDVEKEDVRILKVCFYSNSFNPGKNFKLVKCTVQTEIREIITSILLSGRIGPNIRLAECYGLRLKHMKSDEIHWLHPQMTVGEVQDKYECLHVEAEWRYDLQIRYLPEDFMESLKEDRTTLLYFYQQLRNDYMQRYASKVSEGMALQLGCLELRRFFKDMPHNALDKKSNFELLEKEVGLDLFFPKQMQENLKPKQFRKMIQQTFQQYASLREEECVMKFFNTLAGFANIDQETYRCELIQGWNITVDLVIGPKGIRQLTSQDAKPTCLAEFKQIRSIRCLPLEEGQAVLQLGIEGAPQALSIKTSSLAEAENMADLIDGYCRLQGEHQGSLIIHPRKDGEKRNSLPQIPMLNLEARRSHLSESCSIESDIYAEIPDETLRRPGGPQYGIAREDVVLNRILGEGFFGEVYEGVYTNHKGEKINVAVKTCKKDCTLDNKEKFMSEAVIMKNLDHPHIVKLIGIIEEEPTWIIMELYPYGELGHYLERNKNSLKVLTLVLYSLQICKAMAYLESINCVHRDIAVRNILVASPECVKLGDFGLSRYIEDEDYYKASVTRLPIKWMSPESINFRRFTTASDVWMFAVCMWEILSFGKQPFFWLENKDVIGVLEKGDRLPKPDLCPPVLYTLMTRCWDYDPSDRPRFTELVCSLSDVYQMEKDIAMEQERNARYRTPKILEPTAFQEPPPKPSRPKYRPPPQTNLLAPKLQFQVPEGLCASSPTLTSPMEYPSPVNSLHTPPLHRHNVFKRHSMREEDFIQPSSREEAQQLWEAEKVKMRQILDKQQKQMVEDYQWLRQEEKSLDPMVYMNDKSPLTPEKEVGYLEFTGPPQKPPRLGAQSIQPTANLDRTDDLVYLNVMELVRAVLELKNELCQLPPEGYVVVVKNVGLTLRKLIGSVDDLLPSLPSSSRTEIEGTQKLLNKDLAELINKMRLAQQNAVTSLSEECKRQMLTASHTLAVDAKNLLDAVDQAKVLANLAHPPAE
T5 sequence (Q04912 25-1400): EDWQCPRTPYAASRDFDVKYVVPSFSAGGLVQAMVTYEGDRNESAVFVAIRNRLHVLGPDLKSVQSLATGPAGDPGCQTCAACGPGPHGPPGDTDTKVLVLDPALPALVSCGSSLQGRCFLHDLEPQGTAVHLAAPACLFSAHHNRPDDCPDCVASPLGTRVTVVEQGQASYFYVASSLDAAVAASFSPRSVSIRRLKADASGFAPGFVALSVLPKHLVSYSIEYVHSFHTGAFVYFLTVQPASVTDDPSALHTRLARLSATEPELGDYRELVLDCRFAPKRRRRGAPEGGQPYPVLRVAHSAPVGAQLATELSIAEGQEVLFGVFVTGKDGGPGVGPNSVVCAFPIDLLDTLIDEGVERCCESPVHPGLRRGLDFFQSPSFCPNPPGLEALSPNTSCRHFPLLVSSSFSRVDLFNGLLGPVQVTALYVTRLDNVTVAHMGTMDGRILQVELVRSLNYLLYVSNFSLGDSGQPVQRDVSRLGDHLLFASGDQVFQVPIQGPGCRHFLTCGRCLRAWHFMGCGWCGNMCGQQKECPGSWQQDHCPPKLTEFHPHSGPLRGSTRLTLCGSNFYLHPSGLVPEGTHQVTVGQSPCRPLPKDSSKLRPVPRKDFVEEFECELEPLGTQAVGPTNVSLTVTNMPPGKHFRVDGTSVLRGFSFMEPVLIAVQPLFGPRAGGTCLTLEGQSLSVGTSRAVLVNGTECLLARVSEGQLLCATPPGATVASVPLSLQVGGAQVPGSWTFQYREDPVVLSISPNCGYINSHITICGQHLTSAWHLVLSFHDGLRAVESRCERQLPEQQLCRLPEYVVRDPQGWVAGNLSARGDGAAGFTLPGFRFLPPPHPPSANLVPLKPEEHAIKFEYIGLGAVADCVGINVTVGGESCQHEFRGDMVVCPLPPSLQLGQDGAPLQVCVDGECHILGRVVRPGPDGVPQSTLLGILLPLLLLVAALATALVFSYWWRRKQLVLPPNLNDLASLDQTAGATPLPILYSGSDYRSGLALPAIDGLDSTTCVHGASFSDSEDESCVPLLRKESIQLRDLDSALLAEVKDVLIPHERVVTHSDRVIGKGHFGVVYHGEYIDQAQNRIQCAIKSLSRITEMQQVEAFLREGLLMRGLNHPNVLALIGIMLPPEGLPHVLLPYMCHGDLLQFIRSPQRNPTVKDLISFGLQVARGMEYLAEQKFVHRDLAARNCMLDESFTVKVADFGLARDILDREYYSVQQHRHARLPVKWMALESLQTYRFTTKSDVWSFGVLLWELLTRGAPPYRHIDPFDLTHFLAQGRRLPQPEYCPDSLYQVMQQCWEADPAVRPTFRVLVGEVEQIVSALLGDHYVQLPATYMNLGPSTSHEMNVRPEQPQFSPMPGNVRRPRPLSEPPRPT
T8 sequence (P07947 whole entry): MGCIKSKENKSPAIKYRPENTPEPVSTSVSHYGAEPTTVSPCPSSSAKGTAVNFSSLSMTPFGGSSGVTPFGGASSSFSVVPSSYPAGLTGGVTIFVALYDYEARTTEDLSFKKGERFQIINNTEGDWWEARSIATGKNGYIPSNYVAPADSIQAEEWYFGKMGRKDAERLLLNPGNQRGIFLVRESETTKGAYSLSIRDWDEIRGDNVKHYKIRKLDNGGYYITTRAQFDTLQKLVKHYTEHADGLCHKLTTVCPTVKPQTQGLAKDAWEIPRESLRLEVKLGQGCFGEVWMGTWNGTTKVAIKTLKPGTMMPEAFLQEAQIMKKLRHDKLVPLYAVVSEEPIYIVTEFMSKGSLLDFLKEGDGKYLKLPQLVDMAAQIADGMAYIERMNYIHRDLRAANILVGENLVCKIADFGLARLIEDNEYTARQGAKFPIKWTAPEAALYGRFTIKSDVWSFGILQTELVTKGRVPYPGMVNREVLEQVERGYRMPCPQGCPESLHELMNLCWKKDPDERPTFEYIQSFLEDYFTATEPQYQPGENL

SMILES | inhibition at 1 µM [1] [%] | inhibition at 10 µM [1] [%] | inhibition at 1 µM [2] [%] | inhibition at 10 µM [2] [%] | inhibition at 1 µM [3] [%] | inhibition at 10 µM [3] [%] | inhibition at 1 µM [4] [%] | inhibition at 10 µM [4] [%] | inhibition at 1 µM [5] [%] | inhibition at 10 µM [5] [%] | inhibition at 1 µM [6] [%] | inhibition at 10 µM [6] [%] | inhibition at 1 µM [7] [%] | inhibition at 10 µM [7] [%] | inhibition at 1 µM [8] [%] | inhibition at 10 µM [8] [%] | inhibition at 1 µM [9] [%] | inhibition at 10 µM [9] [%]
COc1ccc2c(c1OC)c(=O)n1c3ccc(O)cc3c3ccnc2c31 [MW01, 5-Hydroxy-10,11-dimethoxy-9H-benzo[c]indolo[3,2,1-ij][1,5]naphthyridin-9-one] | 27 | 59 | 8 | 32 | 1 | 11 | 8 | 12 | 22 | 39 | 9 | 34 | 2 | 9 | 17 | 16 | 8 | 17
COc1ccc2cc3c(N)nn(C(=O)c4cccc(N(C)C)c4)c3nc2c1 [MW05, (3-Amino-7-methoxypyrazolo[3,4-b]quinolin-1-yl)-[3-(dimethylamino)phenyl]methanone] | 5 | -11 | 5 | 0 | 8 | -7 | 3 | -11 | -1 | -16 | 8 | 5 | -2 | -7 | 15 | 20 | -1 | 4
